Laboratory results: US20210106567A1, “COMPOSITIONS AND METHODS FOR INHIBITING CARP-1 BINDING TO NEMO” (United States Government As Represented By The Department …, priority 2019, published 2021)

What was measured:
[1] = system: diffuse large B cell lymphoma cells; test: Cell viability, lymphoma; type: cell-based; conditions: Homo sapiens, read-out: IC50, reduced viabilities
[2] = biological target: T1, Flag-CARP-1 (546-580) binding with Biotin-NEMO (221-261) (Homo sapiens, UniProt Q8IX12); test: AlphaLISA assay of CARP-1/NEMO peptide binding (HTS format); conditions: biphasic, read-out: IC50, inhibition of binding of CARP-1 (546-580) with NEMO (221-261) peptide
T1 construct: Flag-tagged CARP-1 (546-580); purchased Peptides America, Fairfax, Va; host or cells: chemical synthesis
Description: The predicted kinetics of interaction of CARP-1 (551-600; SEQ ID NO: 5) and NEMO (221-261; SEQ ID NO: 2) epitopes was further validated by utilizing respective, chemically synthesized peptides to determine their in-solution binding by SPR technology (Sekhar et al. (2019) Cancers (Basel) 11). […] On the collective basis of the data in FIG. 1, and biophysical and SPR data above, in vitro binding assays were developed utilizing chemically synthesized CARP-1 and NEMO peptides. In the first instance, CARP-1 (551-580; SEQ ID NO: 6) and NEMO (221-261; SEQ ID NO: 2) peptides were used to carry out buffer optimization and DMSO tolerance of the assay. […] Presence of 0.01% tween minimizes non-specific binding and generates higher reproducibility as noted by smaller error bars in FIG. 15A. […]
The AlphaLISA assay for high throughput screening: For screening of a library of chemical compounds, an […] assay was developed and optimized for use in 384-well format (SAMDI Tech, Chicago, Ill.). […] The assay signal (Fluorescence) was measured at 680 nm excitation and 615 nm emission wavelengths to determine assay robustness and DMSO tolerance. […] The plates were read on a Pherastar FS plate reader. […] Those wells were further analyzed to investigate the 8 compounds individually in duplicate.

[3] = biological target: T2, NEMO interaction with CARP-1 (Homo sapiens, UniProt Q8IX12); test: IP-WB in Gst-NEMO expressing HBC cells, CARP-1; type: cell-based; conditions: alone or in combination with Adriamycin
T2 construct: expressed in transfected cells; host or cells: HBC cells stably expressing Gst-NEMO
Protocol: The biochemical mechanism of inhibition of CARP-1 (551-580; SEQ ID NO: 6) binding with NEMO (221-261; SEQ ID NO: 2) by SNI-1 was assessed. E. coli expressed Gst-NEMO (221-261; SEQ ID NO: 2) and His-TAT-HA-CARP-1 (551-580; SEQ ID NO: 6) peptides in IP-WB assays were used. […] Since Adriamycin activates ATM to regulate canonical NF-κB and DSB repair pathways, it remains to be clarified whether CARP-1 regulates RIPK1 signaling dependent and/or independent of ATM.
(§1) The cells were lysed to prepare protein extracts.

HeLa CARP-1 ko cells = test: MTT cell viability; type: cell-based, human
[4] = system: CARP-1 levels, cleavage of PARP or caspase-3; test: Western blot for apoptosis markers; type: cell-based
Description: as §1

[5] = system: SUM149 cell-derived xenografts; test: SUM149 BRCA1-mutant TNBC xenografts in NCr-SCID mice; type: in vivo; conditions: 70 mg/kg daily×13, i.p. (parent) or i.v. (sodium salt)
Description: BRCA1 mutant TNBC Tumor Model: Testing for germline BRCA1/2 mutations permits identification of BRCA1/2 status as clinically relevant in the selection of therapy for patients already diagnosed with breast cancer. BRCA status predicts responsiveness to platinum-based chemotherapy, as well as to inhibitors of poly(ADP-ribose) polymerase (PARP) in breast and ovarian cancers. […] A related objective of this pilot study was to determine whether and to the extent SNI-1 or its water soluble, di-sodium derivative will elicit effects in vivo.

MTT cell viability [6] = type: cell-based; conditions: human, wild-type HeLa cells; read-out: reduction in the viabilities
MTT cell viability [7] = type: cell-based, human; conditions: human, MDA-MB-231 TNBC cells; 1.0, 2.5, 5.0, or 10.0 μM over 24 h; read-out: loss of viability
Protocol: (§2) The murine TNBC cell line 4T1 that was derived from a spontaneously arising BALB/c mammary tumor were obtained from the Karmanos Cancer Institute (KCl), and were maintained in culture (Cheriyan et al. (2016) Oncotarget 7, 73370-73388). […] The cell culture media were also supplemented with 10% FBS, 100 units/ml of penicillin, and 100 μg/ml of streptomycin, and the cells were maintained at 37° C. and 5% CO2. For cell growth and MTT studies, the cells were cultured in fresh media with 5%-10% FBS prior to their treatments with various agents.
(§3) Cell Viability, Immunoprecipitation and Western Blot assays: 500-1000 cells were seeded in each well of 96 well plate and then either untreated (control) or treated with various agents for noted times. After treatment, MTT reagent was added at 0.5 mg/ml concentration for 2-4 hours at 37° C. DMSO was added to solubilize formazan and the plate was read at 570 nm in a plate reader. The histograms indicating levels of cell viability were generated by plotting the net absorbances (Rishi et al. (2003) J Biol Chem 278, 33422-33435; and Rishi et al. (2006) J Biol Chem 281, 13188-13198).

MDA-MB-231 TNBC cells = test: MTT cell viability; type: cell-based, human; conditions: Homo sapiens, MDA-MB-231, 72 h
Protocol: as §2, §3

[8] = system: mammospheres derived from human TNBC PDX tumors; test: Three-dimensional mammosphere assay (MTT); type: cell-based; conditions: SNI-1 2.5 or 5.0 μM, Adriamycin 5 μM, 48 h
Protocol: Three-dimensional Mammosphere Assays: The PDX tumor cells were dissociated from the tumor fragments, and cultured for 2-dimensional and mammosphere studies in vitro (Cheriyan et al. (2016) Oncotarget 7, 73370-73388). Briefly, the cells were washed twice in 1×PBS, trypsinized, and pelleted at 200×g at room temperature. Cells were then re-suspended in 5 ml of mammosphere media (DMEM/F12 containing 2 mM L-glutamine, 100 U/ml penicillin, 100 U/ml streptomycin, 1×B27 supplement, 20 ng/ml recombinant human epidermal growth factor (EGF; Sigma), 10 ng/ml recombinant human basic fibroblast growth factor (bFGF; R&D Systems). Approximately 5000 viable cells per ml was then seeded in an ultra-low adherent 60 mm plate and incubated at 37° C. and 5% CO2 for two weeks without disturbing the plates. After the mammospheres formed, fresh media with or without Adriamycin (5 μM), SNI-1 (2.5 or 5.0 μM), or a combination of these agents was added and the cells incubated for additional 48 h at 37° C. and 5% CO2. The mammospheres in the untreated and treated plates were photographed, and the cells were then dissociated to determine their viabilities by the MTT assay (Cheriyan et al. (2016) Oncotarget 7, 73370-73388).

T1 sequence (Q8IX12 546-580 limits assumed): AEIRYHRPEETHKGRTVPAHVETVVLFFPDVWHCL
T2 sequence (Q8IX12 whole entry): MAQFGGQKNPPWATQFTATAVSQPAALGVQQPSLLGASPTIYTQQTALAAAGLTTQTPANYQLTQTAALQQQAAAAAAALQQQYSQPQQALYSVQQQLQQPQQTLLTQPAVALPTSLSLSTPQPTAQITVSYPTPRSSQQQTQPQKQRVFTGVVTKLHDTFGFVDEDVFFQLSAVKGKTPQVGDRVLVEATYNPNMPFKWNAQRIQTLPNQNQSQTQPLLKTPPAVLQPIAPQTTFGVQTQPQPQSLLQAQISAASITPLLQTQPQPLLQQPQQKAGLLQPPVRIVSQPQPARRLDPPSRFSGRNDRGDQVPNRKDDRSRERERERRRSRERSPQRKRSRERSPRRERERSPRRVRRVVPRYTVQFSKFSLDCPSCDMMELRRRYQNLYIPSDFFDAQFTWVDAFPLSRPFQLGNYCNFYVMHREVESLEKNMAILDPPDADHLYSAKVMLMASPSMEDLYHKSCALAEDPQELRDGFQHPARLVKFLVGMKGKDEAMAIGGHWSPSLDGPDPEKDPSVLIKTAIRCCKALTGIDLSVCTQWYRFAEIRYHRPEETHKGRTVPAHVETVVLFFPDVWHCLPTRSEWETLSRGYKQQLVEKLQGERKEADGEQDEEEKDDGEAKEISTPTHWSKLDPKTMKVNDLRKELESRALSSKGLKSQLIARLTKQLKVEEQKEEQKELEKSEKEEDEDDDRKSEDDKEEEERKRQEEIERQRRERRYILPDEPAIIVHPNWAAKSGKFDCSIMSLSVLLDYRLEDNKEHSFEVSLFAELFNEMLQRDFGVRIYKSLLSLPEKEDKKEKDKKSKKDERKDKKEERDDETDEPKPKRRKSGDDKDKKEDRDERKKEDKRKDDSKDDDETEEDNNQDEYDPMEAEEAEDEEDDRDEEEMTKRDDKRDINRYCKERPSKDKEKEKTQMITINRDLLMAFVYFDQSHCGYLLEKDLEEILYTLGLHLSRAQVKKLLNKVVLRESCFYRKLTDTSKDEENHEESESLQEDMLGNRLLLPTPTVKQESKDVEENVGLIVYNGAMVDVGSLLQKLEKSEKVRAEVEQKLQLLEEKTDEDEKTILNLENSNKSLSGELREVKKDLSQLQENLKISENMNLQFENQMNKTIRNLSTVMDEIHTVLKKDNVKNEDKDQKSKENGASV

For Cc1ccc(-n2nnnc2SCC(=O)c2ccc(O)c(O)c2)cc1 [SNI-1, 1-(3,4-dihydroxyphenyl)-2-{(1-(4-methylphenyl)-1H-tetrazol-5-yl)thio}ethanone], the IC50 [1] was ~10 µM, the IC50 [2] was ~0.3 µM and the “NEMO interaction with CARP-1 (IP-WB)” value [3] was “abrogated NEMO interaction with CARP-1”. The loss of viabilities (HeLa CARP-1 ko cells) was “failed to provoke any loss of viabilities”, the “apoptosis (elevated CARP-1 levels, cleavage of PARP or caspase-3)” value [4] was “stimulation of apoptosis” and the tolerability [5] was “well tolerated”. The cytotoxicity (MTT cell viability [6]) was ~30%, the cytotoxicity at 24 h (MTT cell viability [7]) was 10 to 20% and the IC50 (MDA-MB-231 TNBC cells) was 4 to 4.5 µM. For the same compound, the “growth/viability of mammospheres” value [8] was “failed to inhibit growth of mammospheres”.
